From article PMC9299485, “4‐Iodopyrimidine Labeling Reveals Nuclear Translocation and Nuclease Activity for Both MIF and MIF2” (Chemistry (Weinheim an Der Bergstrasse, Germany), 2021)
Where two headings read alike, the source gives them in different places.

Columns and labels:
Assay type in all cases: biochemical
[1] = molecular target: T1, MIF2 (Homo sapiens, UniProt P30046); assay: MIF2 tautomerase activity inhibition (PP substrate, UV 300 nm)
T1 construct: made in house; host or cells: E. coli BL21(DE3), pET20b(+)
T1 sequence (P30046 2-118 limits assumed): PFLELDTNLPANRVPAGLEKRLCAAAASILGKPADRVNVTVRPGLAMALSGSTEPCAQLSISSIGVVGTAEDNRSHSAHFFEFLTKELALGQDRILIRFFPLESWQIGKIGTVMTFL
Procedure: 2. Preparation of recombinant MIF and MIF2. […]
Purity of obtained protein was tested by SDS-PAGE and Coomassie staining. […]
(§1) The detailed procedure to produce recombinant human MIF2 was reported in our previous publications.[7] Gene sequences of the human MIF2 gene (Invitrogen) was adapted to bacterial expression. After subcloning into a pET20b(+) expression vector, IPTG-induced expression was performed in E.coli strain BL21(DE3). MIF2 proteins were overproduced overnight and harvested cells were resuspended and sonicated. The soluble fraction was puriﬁed using a Q sepharose column (GE Healthcare) with a gradient of NaCl. The fractions containing MIF2 were brought to 1.7 M ammonium sulfate and loaded on a phenyl sepharose column (GE Healthcare) and eluted with a gradient to 0 M ammonium sulfate in a 20 mM sodium phosphate buffer, pH 8.0. Finally, the proteins were purified by size exclusion chromatography on a Superdex75 column (GE Healthcare) in 20 mM sodium phosphate buffer, pH 8.0, with an elution volume characteristic for trimeric MIF2. The collected protein was concentrated using a VivaSpin centrifugation column with a molecular weight cut off at 5000 D a (Sartorius Stedim Biotech GmbH). Purified proteins were aliquoted, snap frozen in liquid nitrogen, and stored at –80 °C. Purity of obtained protein was tested by SDS-PAGE and coomassie staining. The concentration of protein was determined using the Bradford a ssay.
(§2) 3.1 MIF and MIF2 Inhibition
(§3) The protocol for measuring inhibition of MIF or MIF2 tautomerase enzyme activity was described previously.[5] 500 nM MIF solution (180 µL) or 100 nM MIF2 solution (180 µL) in boric acid buffer ([…], pH 6.2) was mixed with 20 mM EDTA solution (10 µL) in demineralized water. A solution of the desired compound dissolved in DMSO (10 µL) or blank DMSO (10 µL) was added. The resulting mixture was preincubated at room temperature for 10 minutes.
(§4) Subsequently, 50 µL of this mixture was mixed with 50 µL of a 1 mM 4-HPP solution for MIF or 1 mM PP solution for MIF2 in ammonium acetate buffer (50 mM, pH 6.0). Thereafter, MIF or MIF2 tautomerase activity was monitored by measuring the increase of UV absorbance at 306 nm for MIF or 300 nm for MIF2 over time. The MIF or MIF2 tautomerase activity of the mixture with blank DMSO dilution was set to 100% enzyme activity. Noncatalyzed conversion of the substrate in the mixture without MIF or MIF2 was set to 0%. The data acquired from the first 3 minutes of the measurement were used to calculate the initial conversion speed. All experiments were performed in triplicate and data processing was done using the program […]
(§5) Table S1. IC50 values (10 min) and inactivation parameters of synthesized compounds.
(§6) (1 picture or pasted object on this page, not shown here)

[2] = molecular target: T2, MIF (Homo sapiens, UniProt P14174); assay: MIF tautomerase activity inhibition (4-HPP substrate, UV 306 nm)
T2 construct: His tag (C); made in house; host or cells: Escherichia coli BL21 (DE3), pET-20b(+)
T2 sequence (P14174 2-115 limits assumed): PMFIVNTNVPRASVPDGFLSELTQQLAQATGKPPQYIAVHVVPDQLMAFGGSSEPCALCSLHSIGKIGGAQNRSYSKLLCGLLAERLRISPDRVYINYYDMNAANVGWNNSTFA
Procedure: 2. Preparation of recombinant MIF and MIF2.
The detailed procedure to produce C-terminal His-tagged recombinant human MIF was reported in our previous publications.[1,4,5] rhMIF was expressed through transforming a pET-20b(+) plasmid containing the target gene into Escherichia coli BL21 (DE3) according to literature procedures.[6] Overexpression was performed and cells were collected and sonicated.
The obtained supernatant was applied to a medium pressure chromatography system (Biologic Duoflow) equipped with a His trap HP (5 mL) column with detection at 280 nm for the eluent.
The column was washed with a binding buffer containing 50 mM Tris and 10% glycerol at pH 7.4 and eluted with elution buffer containing 500 mM imidazole, 50 mM Tris, 10% glycerol at pH 7.4. The pure fractions (as judged by SDS-PAGE) were pooled and subjected to a PD-10 column (GE healthcare) that was equilibrated with PBS buffer at pH 7.4 to remove the high concentration of imidazole. The collected MIF solution was divided into 50 µL aliquots and stored at –80 °C. Purity of obtained protein was tested by SDS-PAGE and Coomassie staining.
The concentration of protein was determined using the Bradford assay.
as §1, §2, §3, §4, §5, §6

[3] = molecular target: T1, MIF2; assay: Kitz-Wilson inactivation kinetics on MIF2 tautomerase; conditions: Kitz-Wilson analysis, ±SD, n=3
Procedure: (§7) In order to derive the kinetic parameters for inactivation of MIFand MIF2, we employed the approach described by Kitz and Wilson. Briefly, four different concentrations of the inhibitor with four different pre-incubation times were selected. The assay conditions are described above with the difference in incubation time.
(§8) For the data analysis, the pre-incubation times for the different concentration of the inhibitor versus the remaining enzyme activity were plotted, so from the linear regression the slope of each concentration of the probe was obtained ( Table S3). Then the 1/slope versus 1/[inhibitor] were plotted (Figure 4) and from the linear regression line ki was derived from the 1/y -intercept and derived from the slope times the ki as described by Kitz and Wilson.
For example, for the probe 8 the equation is: Y = 7,476*X + 5,069 […]
(§9) Table S4. Kinetics studies results.
(§10) Time-dependent inhibition Kitz and Wilson curve […]
ln (MIF tautomerase activity %) […]
(§11) Time-dependent inhibition on MIF2 Y = 299,5*X + 11,14 […]

[4] = molecular target: T2, MIF; assay: hgDNA cleavage by MIF in presence of tautomerase inhibitors; conditions: Figure S3/S7
Procedure: (§12) 7. Nuclease activity of MIF and MIF2.
(§13) Human genomic DNA was obtained from RPE-1 cells by DNA extraction following the protocol described in literature.[10] The nuclease assays were conducted by following the procedure described previously.[8] hgDNA (200 ng/reaction) was incubated with MIF or MIF2 in final concentration of 0.62 -20 µM as indicated in 10Mm Tris-HCl buffer (pH 7.0) containing 10mM MgCl2 (B and C) or specific buffer as indicated at 37°C for two hours. The reaction was terminated with loading buffer containing 10mM EDTA and incubation on ice. The human genomic DNA samples were immediately separated on a 1% agarose gel containing SYBR Safe (ThermoFisher) in 0.5 X TBE buffer with initial switch time of 1.5 s and a final switch time of 3.5 s for 12 hours at 6 V/cm. DNA was further detected by chemiluminescence.
(§14) Figure S7. hgDNA cleavage activity of MIF and MIF2. (A) The MIF2 nuclease activity is Mg 2+- […]
(§15) BITC is a covalent inhibitor that can form covalent bond with the N-terminal proline.[11] (C) […]
as §6

[5] = molecular target: T2, MIF; assay: Kitz-Wilson inactivation kinetics on MIF tautomerase
Procedure: as §7, §8
For example, for the probe 8 the equation is: Y = 7,476*X + 5,069
So, the kinact and the KI values are: kinact =1/5,069 =0.20 min-1
(also on this page, place not known: -1 0 1 2 3 0 50 100 log [FM011] (µM) DDT (%) -1 0 1 2 3 0 50 100 log [ZP308] (µM) DDT activity (%) 0.0 0.5 1.0 1.5 2.0 0 50 100 log [ZP307] (µM) DDT activity (%) 1.4 1.6 1.8 2.0 2.2 0 50 100 log [FM031] (µM) DDT activity (%) pre -incubation cond itions pre -incubation activity o f (Table 1/y-intercept) […]
as §9, §10
ln (MIF tautomerase activity %)
Time-dependent inhibition on MIF Y = 7,476*X + 5,069
Time-dependent inhibition on MIF Y = 12,07*X + 4,234 […]
ln (MIF2 tautomerase activity %)
as §11

[6] = molecular target: T1, MIF2; assay: hgDNA cleavage by MIF2 in presence of tautomerase inhibitors; conditions: Figure S3/S7
Procedure: as §12, §13, §14, §15, §6

**Q.** For `O=C(NCCNc1ccc([N+](=O)[O-])c2nonc12)c1ccc(-c2cc(I)ncn2)cc1` [Compound 8], which “improvement of potency for MIF2 inhibition compared to parental inhibitor 2” value [1] is on record?
**A.** Its value is 2–6 factor.

**Q.** What about the IC50 ([1]; Table 2, 10 min pre-incubation, ±SD, n=3, read-out: IC50 MIF2) of the same compound?
**A.** The IC50 was 20000 ± 2200 nM.

**Q.** And the IC50 ([2]; Table 2, 10 min pre-incubation, ±SD, n=3, read-out: IC50 MIF)?
**A.** Its IC50 is 270 ± 85 nM.

**Q.** What about the IC50 ([2]; approximate, read-out: IC50 on MIF) of the same compound?
**A.** The IC50 was about 200 nM.

**Q.** And the “kinact MIF2 (rate of enzyme inactivation)” value [3]?
**A.** The value was 0.088 ± 0.012 min⁻¹.

**Q.** What about the KI (inactivation) ([3]; read-out: KI MIF2 (inhibition constant)) of the same compound?
**A.** Its KI (inactivation) is 26000 ± 3200 nM.

**Q.** What about the kinact ([3]; read-out: kinact MIF2 (rate of enzyme inactivation)) of the same compound?
**A.** Its kinact is 0.001 to 0.0015 s⁻¹.

**Q.** What about the “effect on DNA cleavage by MIF” value [4] of the same compound?
**A.** Its value is “could not rescue DNA cleavage”.

**Q.** What about the “KI on MIF relative to IC50” value ([5]; KI higher than IC50) of the same compound?
**A.** The value was “about 10 times”.

**Q.** What about the KI (inactivation) ([5]; Kitz-Wilson analysis, ±SD, n=3, read-out: KI MIF (inhibition constant)) of the same compound?
**A.** Its KI (inactivation) is 1500 ± 200 nM.

**Q.** And the kinact ([5]; Kitz-Wilson analysis, ±SD, n=3, read-out: kinact MIF (rate of enzyme inactivation) (converted))?
**A.** Its kinact is 0.00333 s⁻¹.

**Q.** And the “effect on DNA cleavage by MIF2” value [6]?
**A.** Its value is “could not rescue DNA cleavage”.
